Experimental findings from US20050234046A1 (Kalypsys, Inc., priority 2004, published 2005) are described below.

Common to all, as to experiment: Transient transfection (transactivation) assay in CV-1 cells, GAL4-PPAR chimera, luciferase reporter
Type in all cases: cell-based
(In a reporter assay the amount or activity of a reporter protein is the signal.)

One assay has as its target T1, PPAR alpha (Homo sapiens, UniProt Q07869).
T1 construct: expressed in transfected cells; host or cells: CV-1 cells
T1 sequence (Q07869 239-466 limits assumed): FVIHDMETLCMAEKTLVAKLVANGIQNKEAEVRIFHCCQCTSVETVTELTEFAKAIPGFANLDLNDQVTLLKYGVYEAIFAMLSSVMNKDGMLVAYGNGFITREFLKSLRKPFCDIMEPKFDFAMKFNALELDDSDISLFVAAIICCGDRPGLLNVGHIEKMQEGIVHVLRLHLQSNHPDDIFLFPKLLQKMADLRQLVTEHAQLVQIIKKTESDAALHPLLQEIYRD
A digest of the protocol: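 EC50 and efficacy come from a luciferase read-out after 20-24 hours of compound exposure (vehicle 1% DMSO) in transiently transfected CV-1 cells. These cells express a GAL4-PPAR ligand-binding-domain chimera plus a reporter with four or five GAL4 binding sites, and are kept in phenol-red free DME with 5% delipidated calf serum.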

For the next assay, the target named is T2, PPAR delta (Homo sapiens, UniProt Q03181).
T2 construct: expressed in transfected cells; host or cells: CV-1 cells
T2 sequence (Q03181 211-439 limits assumed): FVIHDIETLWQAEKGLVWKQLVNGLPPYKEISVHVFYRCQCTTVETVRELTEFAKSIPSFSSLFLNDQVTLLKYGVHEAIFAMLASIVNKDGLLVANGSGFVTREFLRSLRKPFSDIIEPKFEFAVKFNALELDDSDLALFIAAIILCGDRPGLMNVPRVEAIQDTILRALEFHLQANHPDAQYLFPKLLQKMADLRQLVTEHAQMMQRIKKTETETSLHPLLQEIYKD

Another assay addresses T3, PPAR gamma (Homo sapiens, UniProt P37231).
T3 construct: expressed in transfected cells; host or cells: CV-1 cells
T3 sequence (P37231 238-503 limits assumed): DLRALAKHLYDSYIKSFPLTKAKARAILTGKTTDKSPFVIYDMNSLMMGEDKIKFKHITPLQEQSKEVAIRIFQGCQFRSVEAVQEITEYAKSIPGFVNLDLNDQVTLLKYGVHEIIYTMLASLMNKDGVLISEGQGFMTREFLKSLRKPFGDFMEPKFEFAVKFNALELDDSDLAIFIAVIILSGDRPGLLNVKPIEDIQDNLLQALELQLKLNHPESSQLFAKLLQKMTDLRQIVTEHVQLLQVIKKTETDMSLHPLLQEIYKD

From the text for PPAR gamma: Compounds may be screened for functional potency in transient transfection assays in CV-1 cells or other cell types for their ability to activate the PPAR subtypes (transactivation assay). A previously established chimeric receptor system was utilized to allow comparison of the relative transcriptional activity of the receptor subtypes on the same synthetic response element and to prevent endogenous receptor activation from complicating the interpretation of results. […] The ligand binding domains for murine and human PPAR-alpha, PPAR-gamma, and PPAR-delta are each fused to the yeast transcription factor GAL4 DNA binding domain. CV-1 cells were transiently transfected with expression vectors for the respective PPAR chimera along with a reporter construct containing four or five copies of the GAL4 DNA binding site driving expression of luciferase. After 8-16 h, the cells are replated into multi-well assay plates and the media is exchanged to phenol-red free DME medium supplemented with 5% delipidated calf serum. 4 hours after replating, cells were treated with either compounds or 1% DMSO for 20-24 hours. Luciferase activity was then assayed with Britelite (Perkin Elmer) following the manufacturer's protocol and measured with either the Perkin Elmer Viewlux or Molecular Devices Acquest Xsee, for example, Kliewer, S. A., et. al. Cell 1995, 83, 813-819). Rosiglitazone is used as a positive control in the hPPAR-γ assay. Wy-14643 and GW7647 is used as a positive control in the hPPAR-α assay. GW501516 is used as the positive control in the hPPAR-δ assay.

For the molecule `Cc1cccc(N2CCN(S(=O)(=O)c3cccc(CC(=O)O)c3)CC2C)c1` (stereo not drawn) [Example 118, [3-(3-methyl-4-m-tolyl-piperazine-1-sulfonyl)-phenyl]-acetic acid], the EC50 (in general, the midpoint of the concentration-response curve) at PPAR alpha was above 100 µM; at PPAR delta it was 5 to 100 µM; at PPAR gamma, 5 to 100 µM.
For the molecule `Cc1ccc(N2CCN(S(=O)(=O)c3cccc(CC(=O)O)c3)CC2)cc1C` [Example 119, {3-[4-(3,4-Dimethyl-phenyl)-piperazine-1-sulfonyl]-phenyl}-acetic acid], the concentration giving a half-maximal response (EC50) at PPAR alpha, at PPAR delta and at PPAR gamma was 5 to 100 µM throughout.
With `Cc1ccc(Cl)cc1N1CCN(S(=O)(=O)c2cccc(CC(=O)O)c2)CC1` [Example 120, {3-[4-(5-Chloro-2-methyl-phenyl)-piperazine-1-sulfonyl]-phenyl}-acetic acid], the half-maximal effective concentration (EC50) on PPAR alpha, on PPAR delta and on PPAR gamma was above 100 µM each time.
Regarding `O=C(O)Cc1cccc(S(=O)(=O)N2CCN(CCc3ccccc3)CC2)c1` [Example 121, [3-(4-phenethyl-piperazine-1-sulfonyl)-phenyl]-acetic acid], the concentration for a half-maximal effect (EC50) at PPAR alpha, at PPAR delta and on PPAR gamma was above 100 µM in each case.
In the case of `N#Cc1ccc(N2CCN(S(=O)(=O)c3cccc(CC(=O)O)c3)CC2)cc1` [Example 122, {3-[4-(4-Cyano-phenyl)-piperazine-1-sulfonyl]-phenyl}-acetic acid], the concentration giving a half-maximal response (EC50) was above 100 µM at PPAR alpha, 5 to 100 µM on PPAR delta and above 100 µM at PPAR gamma.
On to `O=C(O)Cc1cccc(S(=O)(=O)N2CCN(Cc3ccc(F)cc3)CC2)c1` [Example 123, {3-[4-(4-Fluoro-benzyl)-piperazine-1-sulfonyl]-phenyl}-acetic acid], for which the EC50 at PPAR alpha is above 100 µM; at PPAR delta, 5 to 100 µM; on PPAR gamma, 5 to 100 µM.
As for `COc1ccc(N2CCN(S(=O)(=O)c3cccc(CC(=O)O)c3)CC2)cc1` [Example 124, {3-[4-(4-Methoxy-phenyl)-piperazine-1-sulfonyl]-phenyl}-acetic acid], the figures for the concentration for a half-maximal effect (EC50) at PPAR alpha, on PPAR delta and at PPAR gamma were above 100 µM, 5 to 100 µM and 5 to 100 µM, respectively.
Regarding `O=C(O)Cc1cccc(S(=O)(=O)N2CCN(c3cccc(Br)c3)CC2)c1` [Example 125, {3-[4-(3-Bromo-phenyl)-piperazine-1-sulfonyl]-phenyl}-acetic acid], the EC50 on PPAR alpha, on PPAR delta and on PPAR gamma was 5 to 100 µM in each case.
With `CC(C)(C)c1ccc(N2CCN(S(=O)(=O)c3cccc(CC(=O)O)c3)CC2)cc1` [Example 126, {3-[4-(4-tert-butyl-phenyl)-piperazine-1-sulfonyl]-phenyl}-acetic acid], the results for the EC50 on PPAR alpha, on PPAR delta and at PPAR gamma were 5 to 100 µM, 5 to 100 µM and below 5 µM, respectively.
For the molecule `COc1ccc(N2CCN(S(=O)(=O)c3cccc(CC(=O)O)c3)CC2)cc1OC` [Example 127, {3-[4-(3,4-Dimethoxy-phenyl)-piperazine-1-sulfonyl]-phenyl}-acetic acid], the EC50 at PPAR alpha, at PPAR delta and at PPAR gamma was above 100 µM in each case.
For the molecule `O=C(O)Cc1cccc(S(=O)(=O)N2CCN(c3ccc(C(F)(F)F)cc3[N+](=O)[O-])CC2)c1` [Example 128, {3-[4-(2-Nitro-4-trifluoromethyl-phenyl)-piperazine-1-sulfonyl]-phenyl}-acetic acid], the half-maximal effective concentration (EC50) on PPAR alpha, on PPAR delta and on PPAR gamma was 5 to 100 µM in each case.
`COc1ccccc1N1CCN(S(=O)(=O)c2cccc(CC(=O)O)c2)CC1` [Example 129, {3-[4-(2-Methoxy-phenyl)-piperazine-1-sulfonyl]-phenyl}-acetic acid]: the EC50 at PPAR alpha, on PPAR delta and at PPAR gamma was above 100 µM in each case.
As for `O=C(O)Cc1cccc(S(=O)(=O)N2CCN(C3CCCCC3)CC2)c1` [Example 130, [3-(4-Cyclohexyl-piperazine-1-sulfonyl)-phenyl]-acetic acid], the EC50 at PPAR alpha is above 100 µM; at PPAR delta, above 100 µM; at PPAR gamma it was 5 to 100 µM.
In the case of `Cc1ccc(C)c(N2CCN(S(=O)(=O)c3cccc(CC(=O)O)c3)CC2)c1` [Example 131, {3-[4-(2,5-Dimethyl-phenyl)-piperazine-1-sulfonyl]-phenyl}-acetic acid], the EC50 is above 100 µM at PPAR alpha, 5 to 100 µM on PPAR delta and 5 to 100 µM on PPAR gamma.
Regarding `O=C(O)Cc1cccc(S(=O)(=O)N2CCN(CC3CCCCC3)CC2)c1` [Example 132, [3-(4-Cyclohexylmethyl-piperazine-1-sulfonyl)-phenyl]-acetic acid], the EC50 on PPAR alpha was above 100 µM; at PPAR delta, above 100 µM; on PPAR gamma, 5 to 100 µM.
With `N#Cc1ccccc1N1CCN(S(=O)(=O)c2cccc(CC(=O)O)c2)CC1` [Example 133, {3-[4-(2-Cyano-phenyl)-piperazine-1-sulfonyl]-phenyl}-acetic acid], the concentration for a half-maximal effect (EC50) on PPAR alpha, on PPAR delta and at PPAR gamma was above 100 µM each time.
For `O=C(O)Cc1cccc(S(=O)(=O)N2CCN(C(c3ccccc3)c3ccc(Cl)cc3)CC2)c1` (stereo not drawn) [Example 134, (3-{4-[(4-Chloro-phenyl)-phenyl-methyl]-piperazine-1-sulfonyl}-phenyl)-acetic, acid], the EC50 on PPAR alpha is above 100 µM; on PPAR delta, above 100 µM; at PPAR gamma it was 5 to 100 µM.
On to `O=C(O)Cc1cccc(S(=O)(=O)N2CCN(c3ccc([N+](=O)[O-])cc3)CC2)c1` [Example 135, {3-[4-(4-Nitro-phenyl)-piperazine-1-sulfonyl]-phenyl}-acetic acid], for which the half-maximal effective concentration (EC50) at PPAR alpha is above 100 µM; at PPAR delta, 5 to 100 µM; on PPAR gamma, above 100 µM.
On to `O=C(O)Cc1cccc(S(=O)(=O)N2CCN(C(=O)c3ccco3)CC2)c1` [Example 136, {3-[4-(Furan-2-carbonyl)-piperazine-1-sulfonyl]-phenyl}-acetic acid], for which the 50% effective concentration (EC50) at PPAR alpha, on PPAR delta and at PPAR gamma was above 100 µM in each case.
With `COc1cccc(N2CCN(S(=O)(=O)c3cccc(CC(=O)O)c3)CC2)c1` [Example 137, {3-[4-(3-Methoxy-phenyl)-piperazine-1-sulfonyl]-phenyl}-acetic acid], the EC50 on PPAR alpha, at PPAR delta and on PPAR gamma was above 100 µM each time.
Turning to `O=C(O)Cc1cccc(S(=O)(=O)N2CCN(C(c3ccc(F)cc3)c3ccc(F)cc3)CC2)c1` [Example 138, (3-{4-[Bis-(4-fluoro-phenyl)-methyl]-piperazine-1-sulfonyl}-phenyl)-acetic acid], the EC50 was above 100 µM at PPAR alpha, above 100 µM on PPAR delta and 5 to 100 µM on PPAR gamma.
As for `O=C(O)Cc1cccc(S(=O)(=O)N2CCN(c3cccc(Cl)c3)CC2)c1` [Example 139, {3-[4-(3-Chloro-phenyl)-piperazine-1-sulfonyl]-phenyl}-acetic acid], the EC50 on PPAR alpha is above 100 µM; on PPAR delta, 5 to 100 µM; on PPAR gamma, 5 to 100 µM.
Turning to `O=C(O)Cc1cccc(S(=O)(=O)N2CCN(c3ccccc3Cl)CC2)c1` [Example 140, {3-[4-(2-Chloro-phenyl)-piperazine-1-sulfonyl]-phenyl}-acetic acid], the half-maximal effective concentration (EC50) at PPAR alpha, on PPAR delta and at PPAR gamma was above 100 µM each time.
In the case of `O=C(O)Cc1cccc(S(=O)(=O)N2CCN(c3ccccc3F)CC2)c1` [Example 141, {3-[4-(2-Fluoro-phenyl)-piperazine-1-sulfonyl]-phenyl}-acetic acid], the results for the EC50 on PPAR alpha, at PPAR delta and at PPAR gamma were above 100 µM, 5 to 100 µM and above 100 µM, respectively.
For `CCOc1ccccc1N1CCN(S(=O)(=O)c2cccc(CC(=O)O)c2)CC1` [Example 142, {3-[4-(2-Ethoxy-phenyl)-piperazine-1-sulfonyl]-phenyl}-acetic acid], the EC50 on PPAR alpha, at PPAR delta and on PPAR gamma was above 100 µM in each case.
Consider `O=C(O)Cc1cccc(S(=O)(=O)N2CCN(C/C=C/c3ccccc3)CC2)c1` [Example 143, {3-[4-(3-Phenyl-allyl)-piperazine-1-sulfonyl]-phenyl}-acetic acid], for which the results for the EC50 on PPAR alpha, on PPAR delta and at PPAR gamma were 5 to 100 µM, 5 to 100 µM and above 100 µM, respectively.
Regarding `O=C(O)Cc1cccc(S(=O)(=O)N2CCN(c3ccc(F)cc3)CC2)c1` [Example 144, {3-[4-(4-Fluoro-phenyl)-piperazine-1-sulfonyl]-phenyl}-acetic acid], the half-maximal effective concentration (EC50) at PPAR alpha is above 100 µM; at PPAR delta, 5 to 100 µM; on PPAR gamma, 5 to 100 µM.
As for `O=C(O)Cc1cccc(S(=O)(=O)N2CCN(c3ccccc3)CC2)c1` [Example 145, [3-(4-Phenyl-piperazine-1-sulfonyl)-phenyl]-acetic acid], the EC50 at PPAR alpha was above 100 µM; on PPAR delta, 5 to 100 µM; on PPAR gamma, above 100 µM.
